Reference: patent US12606594B2, “Heterotandem bicyclic peptide complexes” (BicycleTx Limited, priority 2019, dated 2026)
“And” between values parts separate entries of the source, which are not always exact repeats. Equal entries are not always repeated. Where two headings read alike, the source gives them in different places. Starred links: 1 amine or outer side, 2 acyl side, 3 side chain; linkers in the order of their positions; H or OH if unused. Positions of bridges follow the written chain, without caps; N, C: chain ends. Non-standard residues stand in square brackets, D forms with d. Chains are numbered I, II in the order given. X1 = O=C(CCOCCOCCOCCN(CCOCCOCCOCCn1cc(CCC(=O)[*:2])nn1)CCOCCOCCOCCn1cc(CCC(=O)[*:3])nn1)[*:1]; TATA = O=C(CC[*:1])N1CN(C(=O)CC[*:2])CN(C(=O)CC[*:3])C1; d1Nal = N[C@H](Cc1cccc2ccccc12)C(=O)O; Hyp = O=C(O)[C@@H]1C[C@@H](O)CN1; hArg = N=C(N)NCCCC[C@H](N)C(=O)O; tBuAla = CC(C)(C)C[C@H](N)C(=O)O; Nle = CCCC[C@H](N)C(=O)O

Tests used:
CD137 = CD137 reporter assay co-culture with tumor cells (Promega CD137 luciferase reporter, Jurkat cells); format: cell-based
Protocol: (§1) Culture medium, referred to as R1 media, is prepared by adding 1% FBS to RPMI-1640 (component of Promega kit CS196005). Serial dilutions of test articles in R1 are prepared in a sterile 96 well-plate. Add 25 μL per well of test articles or R1 (as a background control) to designated wells in a white cell culture plate. Tumor cells* are harvested and resuspended at a concentration of 400,000 cells/mL in R1 media. Twenty five (25) μL/well of tumor cells are added to the white cell culture plate. Jurkat cells (Promega kit CS196005, 0.5 mL) are thawed in the water bath and then added to 5 ml pre-warmed R1 media. Twenty five (25) […] of Jurkat cells are then added to the white cell culture plate. Incubate the cells and test articles for 6 h at 37° C., 5% CO2. At the end of 6 h, add 75 µL/well Bio-Glo™ reagent (Promega) and incubate for 10 min before reading luminescence in a plate reader (Clariostar, BMG). The fold change relative to cells alone (Jurkat cells+Cell line used in co-culture) is calculated and plotted in GraphPad Prism as log(agonist) vs response to determine EC50 (nM) and Fold Induction over background (Max).
(§2) The tumor cell types used in co-culture for EphA2 are A549, PC-3 and HT29.

[1] = as above; format: cell-based; settings: read-out: Emax (Fold Induction over background)
Protocol: as §1, §2

[2] = Pharmacokinetics of BCY13272 in SD rats; format: in vivo; settings: 3.6 mg/kg IV infusion (15 min)
Protocol: Male SD Rats were dosed with heterotandem complex BCY13272 formulated in 25 mM Histidine HCl, 10% sucrose pH 7 by IV bolus or IV infusion (15 minutes). Serial bleeding (about 80 μL blood/time point) was performed via submandibular or saphenous vein at each time point. All blood samples were immediately transferred into prechilled microcentrifuge tubes containing 2 μL K2-EDTA (0.5M) as anti-coagulant and placed on wet ice. Blood samples were immediately processed for plasma by centrifugation at approximately 4° C., 3000 g. The precipitant including internal standard was immediately added into the plasma, mixed well and centrifuged at 12,000 rpm, 4° C. for 10 minutes. The supernatant was transferred into pre-labeled polypropylene microcentrifuge tubes, and then quick-frozen over dry ice. The samples were stored at […] or below as needed until analysis. 7.5 μL of the supernatant samples were directly injected for LC-MS/MS analysis using an Orbitrap Q Exactive in positive ion mode to determine the concentrations of analyte. Plasma concentration versus time data were analyzed by non-compartmental approaches using the Phoenix WinNonlin 6.3 software program. CO, Cl, Vdss, T½, AUC(0-last), AUC(0-inf), MRT(0-last), MRT(0-inf) and graphs of plasma concentration versus time profile were reported.

**Q.** Which “Emax (Fold Induction over background)” value (CD137; EphA2 cell line A549) does the source give for “I: A[hArg]DC[Hyp]LVNPLCLEP[d1Nal]WTC-NH2 / II: Ac-C[tBuAla]PE[dK]PYCFADPY[Nle]CA-NH2 / III: Ac-C[tBuAla]PE[dK]PYCFADPY[Nle]CA-NH2 (linker I:4-I:11-I:18, II:1-II:8-II:15, III:1-III:8-III:15 via TATA (inferred); linker I:N-II:5-III:5 via X1 (inferred)) [BCY13272]” here?
**A.** Its value is 23.6 and 30.2.

**Q.** And the “Emax (Fold Induction over background)” value (CD137; EphA2 cell line HT-29)?
**A.** Its value is 26 and 36.4.

**Q.** And the “Emax (Fold Induction over background)” value (CD137; EphA2 cell line PC-3)?
**A.** The value was 53 and 44.5.

**Q.** What about the fold induction ([1]; EphA2 cell line A549) of the same substance?
**A.** Its fold induction is 25.7.

**Q.** What about the fold induction ([1]; EphA2 cell line HT-29) of the same substance?
**A.** Its fold induction is 36.5.

**Q.** What about the fold induction ([1]; EphA2 cell line PC-3) of the same substance?
**A.** The fold induction was 44.2.

**Q.** What about the “T½ (terminal half-life)” value ([2]; 3.6 mg/kg) of the same substance?
**A.** The value was 2.9 h.

**Q.** And the clearance ([2]; rat, in vivo, read-out: Clp (clearance))?
**A.** The clearance was 7.4 mL/min/kg.
